In brackets after ≈: the same amount, converted by molar mass. Where two headings read alike, the source gives them in different places. Marks after values point to notes of the source that are not given here.
Experiments:
[1] = system: S. aureus N315 (MRSA isolate); test: Minimum inhibitory and bactericidal concentration determination; format: cell-based, Staphylococcus aureus; conditions: for change of MIC in minimal media compared to rich media: S. aureus N315; for MIC: Staphylococcus aureus, MRSA; for MIC S. aureus N315: Table 2; for MBC S. aureus N315: Table 2, value in parentheses
Procedure: (§1) The 96-well plate was organized as follows. Media (100 μl) were added to all wells.

[2] = system: PKZRSA1 (PKZ18-22-resistant MRSA); test: MICs against PKZ18-22-resistant mutant compared to WT MRSA; format: cell-based, Staphylococcus aureus
Procedure: as §1

[3] = system: E. coli; test: Minimum inhibitory and bactericidal concentration determination, Gram-negative control; format: cell-based, Escherichia coli; conditions: for MBC E. coli: value in parentheses
Procedure: as §1

[4] = system: glyQS T-box; test: qRT-PCR transcriptional read-through of T-box-regulated glyQS (confirmation of inhibition of T-box mechanism); format: cell-based, Bacillus subtilis 1A5; conditions: for T-box-controlled expression of glyQS (termination of read-through): B. subtilis 1A5, increasing concentrations, minimal media; for T-Box targeting: confirmation of inhibition of T-box mechanism from qRT-PCR assay; for inhibition of read-through compared with PKZ18: 4 μg/ml of each drug, side by side in same biological replicate
Excerpt: Sample preparation of RNA and cDNA.

[5] = system: S. aureus N315; test: Checkerboard assay and FIC; format: cell-based, Staphylococcus aureus
Procedure: S. aureus N315 cultures were prepared identically to MIC determination in BHI media. The co-MICs were determined using the checkerboard method. In short, antibiotics to be tested with PKZ18 analogs were diluted 2-fold top to bottom (A to G rows) in a 96-well plate, PKZ18 analogs were diluted 2-fold right to left (columns 11-2 of the 96-well plate), and column 12 was used for vector, media, and growth controls. Each drug was therefore tested by itself and with every dilution of the other drug.
The synergistic and additive interactions were determined based on determined cutoffs using the equation
[formula] where MICAB is the lowest possible concentration of both drugs combined where there is no growth, and MICA and MICB are the MIC values of the individual drugs. For a synergistic drug interaction, the fractional inhibitory concentration (FIC) should be below 0.5, additive or indifferent effects are considered in an FIC range of 0.5 to <4, and an FIC value above 4 is considered antagonistic.

[6] = system: T-box controlled genes in MRSA; test: RNA sequencing of MRSA grown in minimal media; format: cell-based, Staphylococcus aureus; conditions: 4 μg/ml, control antibiotic
[7] = system: B. subtilis 168; test: Minimum inhibitory concentration determination; format: cell-based, Bacillus subtilis
Procedure: as §1

[8] = system: S. aureus N315 (MRSA); test: Antibiotic resistance frequency (fluctuation assay); format: cell-based, Staphylococcus aureus; conditions: MRSA plated on 64 μg/ml PKZ18-22 or 10 μg/ml gentamicin
Excerpt: Gentamicin on BHI agar was used as a control.

| Compound | MIC E. coli [3] [µg/mL] | MBC E. coli [3] [µg/mL] | T-Box targeting ([4]; Table 1) | T-Box targeting ([4]; Table 2) | MIC S. aureus N315 [1] [µg/mL] | MBC S. aureus N315 [1] [µg/mL] | further results |
| --- | --- | --- | --- | --- | --- | --- | --- |
| C/C(=C\C(=O)OCCCCCCCCC(=O)O)C[C@@H]1OC[C@H](C[C@@H]2O[C@H]2[C@@H](C)[C@H](C)O)[C@@H](O)[C@H]1O [Mupirocin, reference compound] | – | – | – | – | – | – | change of MIC in minimal media compared to rich media [1]: increased MICs; MIC ([1]; S. aureus N315, minimal media, read-out: MIC against S. aureus in minimal media): 1 µg/mL (≈ 2 µM); MIC ([1]; S. aureus N315, rich media, read-out: MIC against S. aureus in rich media): 0.25 µg/mL (≈ 0.499 µM); change in the MIC between WT and PKZRSA1 [2]: no change |
| CC(C)c1ccc(-c2csc(NC(=O)C3C4CCC(C4)C3C(=O)O)n2)cc1 (stereo not shown) [PKZ18-21] | > 256 | > 256 | Yes | Yes | 64 (≈ 166 µM) | > 256 | T-box-controlled expression of glyQS (termination of read-through) [4]: inhibited |
| CCCCc1ccc(-c2nc(NC(=O)C3C4C=CC(C4)C3C(=O)O)sc2C)cc1 (stereo not shown) [PKZ18-52] | > 256 | > 256 | Yes | Yes | 32 (≈ 77.9 µM) | 64 (≈ 156 µM) | fractional inhibitory concentration FIC ([5]; with gentamicin): 0.38; inhibition of read-through compared with PKZ18 [4]: significantly better than PKZ18; T-box-controlled expression of glyQS (termination of read-through) [4]: inhibited; MIC against S. aureus in minimal media ([1]; S. aureus N315, minimal media): 16^b μg/ml; MIC against S. aureus in rich media ([1]; S. aureus N315, rich media): 16-32^b μg/ml |
| Cc1sc(NC(=O)C2C3C=CC(C3)C2C(=O)O)nc1-c1ccc(CC(C)C)cc1 (stereo not shown) [PKZ18-53] | > 256 | > 256 | Yes | Yes | 32 (≈ 77.9 µM) | 64 (≈ 156 µM) | fractional inhibitory concentration FIC ([5]; with ampicillin): 0.75; fractional inhibitory concentration FIC ([5]; with chloramphenicol): 0.75; fractional inhibitory concentration FIC ([5]; with gentamicin): 0.38; inhibition of read-through compared with PKZ18 [4]: significantly better than PKZ18; T-box-controlled expression of glyQS (termination of read-through) [4]: inhibited; fold reduction in MIC in minimal compared to rich media ([1]; MRSA strain S. aureus N315): 2 fold; MIC against S. aureus in minimal media ([1]; S. aureus N315, minimal media): 16^b μg/ml; MIC against S. aureus in rich media ([1]; S. aureus N315, rich media): 32^b μg/ml |
| CCCCc1ccc(-c2nc(NC(=O)C3C4CCC(O4)C3C(=O)O)sc2C)cc1 (stereo not shown) [PKZ18-54] | > 256 | > 256 | No | No | 128 (≈ 309 µM) | 256 (≈ 618 µM) | – |
| COc1ccc(-c2csc(NC(=O)C3C4CCC(C4)C3C(=O)O)n2)cc1 (stereo not shown) [PKZ18-55] | > 256 | > 256 | No | No | > 256 | > 256 | – |
| CCCc1ccc(-c2nc(NC(=O)C3C4CCC(O4)C3C(=O)O)sc2C)cc1 (stereo not shown) [PKZ18-56] | > 256 | > 256 | No | No | > 256 | > 256 | – |
| Cc1sc(NC(=O)C2C3CCC(O3)C2C(=O)O)nc1-c1ccc(CC(C)C)cc1 (stereo not shown) [PKZ18-57] | > 256 | > 256 | No | No | > 256 | > 256 | – |
| CCc1ccc(-c2csc(NC(=O)C3C4CCC(C4=C(C)C)C3C(=O)O)n2)cc1 (stereo not shown) [PKZ18-58] | – | – | No | No | – | – | – |
| O=C(N[C@H](CO)[C@H](O)c1ccc([N+](=O)[O-])cc1)C(Cl)Cl [chloramphenicol] | – | – | – | – | – | – | fold lower MIC for PKZRSA1 than WT MRSA [2]: 2 fold |
| CCCCCCCCCC(=O)N[C@@H](Cc1c[nH]c2ccccc12)C(=O)N[C@H](CC(N)=O)C(=O)N[C@@H](CC(=O)O)C(=O)N[C@@H]1C(=O)NCC(=O)N[C@@H](CCCN)C(=O)N[C@@H](CC(=O)O)C(=O)N[C@H](C)C(=O)N[C@@H](CC(=O)O)C(=O)NCC(=O)N[C@H](CO)C(=O)N[C@@H]([C@H](C)CC(=O)O)C(=O)N[C@@H](CC(=O)c2ccccc2N)C(=O)O[C@@H]1C [daptomycin, reference compound] | – | – | – | – | – | – | expression and read-through of T-box-controlled genes [6]: lower than untreated for many of the genes; initiation of T-box-controlled genes [6]: did not significantly affect; change in the MIC between WT and PKZRSA1 [2]: no change |
| Cc1onc(-c2ccccc2)c1C(=O)N[C@@H]1C(=O)N2[C@@H]1SC(C)(C)[C@@H]2C(=O)O [oxacillin] | – | – | – | – | – | – | fold increase in MIC against PKZRSA1 compared to WT [2]: 16 fold |
| CO[C@H]1/C=C/O[C@@]2(C)Oc3c(C)c(O)c4c(O)c(c(/C=N/N5CCN(C)CC5)c(O)c4c3C2=O)NC(=O)/C(C)=C\C=C\[C@H](C)[C@H](O)[C@@H](C)[C@@H](O)[C@@H](C)[C@H](OC(C)=O)[C@@H]1C [rifampin] | – | – | – | – | – | – | change in the MIC between WT and PKZRSA1 [2]: no change |
| Gentamicin [reference compound] | – | – | – | – | – | – | MIC against B. subtilis 168 in minimal media ([7]; minimal media): 0.25 µg/mL; MIC against B. subtilis 168 in rich media ([7]; rich media): 0.125 µg/mL; fold decrease in the MIC of gentamicin ([5]; in combination with PKZ18-22): 8 fold; change of MIC in minimal media compared to rich media [1]: increased MICs; MIC against S. aureus in minimal media ([1]; S. aureus N315, minimal media): 2.0^b μg/ml; MIC against S. aureus in rich media ([1]; S. aureus N315, rich media): 0.5^b μg/ml; fold increase in MIC against PKZRSA1 compared to WT [2]: 2 fold; resistance frequency [8]: 1.6×10^−7 |

From patent US11617741B1, “Method for inhibiting growth of bacteria” (priority 2021, dated 2023)
